{"source": "patent US12447188B2", "about": "“Compositions and methods for the antiseptic treatment of biofilms on mammalian tissue” (Avadim Health IP, Inc., priority 2019, dated 2025)", "system": "GAS", "conditions": "tested with GAS"}
{"compound": "CC[C@H](C)[C@H](NC(=O)[C@H](CCCCN)NC(=O)[C@H](CCC(=O)O)NC(=O)[C@H](CCCCN)NC(=O)[C@H](CO)NC(=O)[C@H](CCCCN)NC(=O)[C@H](CCCNC(=N)N)NC(=O)[C@H](Cc1ccccc1)NC(=O)[C@H](Cc1ccccc1)NC(=O)[C@H](CC(=O)O)NC(=O)CNC(=O)[C@H](CC(C)C)NC(=O)[C@@H](N)CC(C)C)C(=O)NCC(=O)N[C@@H](CCCCN)C(=O)N[C@@H](CCC(=O)O)C(=O)N[C@@H](Cc1ccccc1)C(=O)N[C@@H](CCCCN)C(=O)N[C@@H](CCCNC(=N)N)C(=O)N[C@H](C(=O)N[C@H](C(=O)N[C@@H](CCC(N)=O)C(=O)N[C@@H](CCCNC(=N)N)C(=O)N[C@H](C(=O)N[C@@H](CCCCN)C(=O)N[C@@H](CC(=O)O)C(=O)N[C@@H](Cc1ccccc1)C(=O)N[C@@H](CC(C)C)C(=O)N[C@@H](CCCNC(=N)N)C(=O)N[C@@H](CC(N)=O)C(=O)N[C@@H](CC(C)C)C(=O)N[C@H](C(=O)N1CCC[C@H]1C(=O)N[C@@H](CCCNC(=N)N)C(=O)N[C@H](C(=O)N[C@@H](CCC(=O)O)C(=O)N[C@@H](CO)C(=O)O)[C@@H](C)O)C(C)C)[C@@H](C)CC)C(C)C)[C@@H](C)CC", "note": "[Synthetic LL-37 peptide]", "values": [{"measurement": "MBC", "result": 16, "unit": "µM"}, {"measurement": "MIC", "result": 16, "unit": "µM"}]}
